Measurements: patent US20070128217A1 (priority 2003, published 2007)

Tests used:
[1] = test system: rabbit serum obtained by immunizing a rabbit with the SARS-CoV strain Frankfurt 1; format: binding; set-up: Binding of a rabbit serum to linear peptides / Binding of a rabbit serum to looped peptides / Rabbit serum linear peptides / Rabbit serum looped peptides / Binding of a rabbit serum to linear peptides of protein N of SARS-CoV Urbani (Rabbit serum linear peptides) / Binding of a rabbit serum to looped/cyclic peptides of protein N of SARS-CoV Urbani (Rabbit serum looped peptides): unit not given here
[2] = test system: control sera (pooled serum of ten healthy LUMC hospital workers; commercial negative donor pooled serum from the Dutch bloodbank); format: binding, human; set-up: Binding of Control serum LUMC to linear peptides / Binding of Control serum Blood-bank to linear peptides / Binding of Control serum LUMC to looped peptides / Binding of Control Serum Blood-Bank to Looped peptides / Binding of Control serum LUMC to linear peptides of the protein M of SARS-CoV Urbani / Binding of Control serum Blood-bank to linear peptides of the protein M of SARS-CoV Urbani / Binding of Control serum LUMC to looped peptides of the protein M of SARS-CoV Urbani / Binding of Control Serum Blood-Bank to Looped peptides of the protein M of SARS-CoV Urbani: unit not given here
[3] = test system: antibodies in sera from SARS patients (sera 1a, 1b, 2, 6, 37, 62, London, SARS-yellow, SARS-green); format: binding, human; set-up: Binding of serum 6 to linear peptides of protein X1 of SARS-CoV Urbani / Binding of serum 37 to linear peptides of protein X1 of SARS-CoV Urbani / Binding of serum 6 to looped/cyclic peptide (PEPSCAN-ELISA) / Binding of serum 37 to looped/cyclic peptide (PEPSCAN-ELISA) / Binding of serum 37 to looped/cyclic peptides of protein X1 of SARS-CoV Urbani / Binding of serum 6 to linear peptides of protein X2 / Binding of serum 37 to linear peptides of protein X2 / Binding of serum 37 to looped/cyclic peptides of protein X2 of SARS-CoV Urbani / Binding of serum 6 to linear peptides of protein M of SARS-CoV Urbani / Binding of serum 37 to linear peptides of protein M of SARS-CoV Urbani / Binding of serum 6 to looped/cyclic peptides of protein M of SARS-CoV Urbani / Binding of serum 37 to looped/cyclic peptides of protein M of SARS-CoV Urbani / Binding of serum 6 to linear peptides of protein X3 of SARS-CoV Urbani / Binding of serum 37 to linear peptides of protein X3 of SARS-CoV Urbani / Binding of serum 37 to looped/cyclic peptides of protein X3 of SARS-CoV Urbani / Binding of serum 6 to linear peptides of protein X4 of SARS-CoV Urbani / Binding of serum 37 to linear peptides of protein X4 of SARS-CoV Urbani / Binding of serum 37 to looped/cyclic peptides of protein X4 of SARS-CoV Urbani / Binding of serum 6 to linear peptides of protein X5 of SARS-CoV Urbani / Binding of serum 37 to linear peptides of protein X5 of SARS-CoV Urbani / Binding of serum 37 to looped/cyclic peptides of protein X5 of SARS-CoV Urbani / Binding of serum 6 to linear peptides of protein N of SARS-CoV Urbani / Binding of serum 37 to linear peptides of protein N of SARS-CoV Urbani / Binding of serum 6 to linear peptide (PEPSCAN-ELISA) / Binding of serum 1a to looped/cyclic peptides of protein N of SARS-CoV Urbani / Binding of serum 1b to looped/cyclic peptides of protein N of SARS-CoV Urbani / Binding of serum 2 to looped/cyclic peptides of protein N of SARS-CoV Urbani / Binding of serum 6 to looped/cyclic peptides of protein N of SARS-CoV Urbani / Binding of serum 37 to looped/cyclic peptides of protein N of SARS-CoV Urbani / Binding of serum 62 to looped/cyclic peptides of protein N of SARS-CoV Urbani / Binding of serum London to looped/cyclic peptides of protein N of SARS-CoV Urbani / Binding of serum SARS-green to looped/cyclic peptides of protein N of SARS-CoV Urbani: unit not given here

Row | Sequence | Binding of a rabbit serum to linear peptides [1] | Binding of a rabbit serum to looped peptides [1] | Binding of Control Serum Blood-Bank to Looped peptides [2] | Binding of Control serum Blood-bank to linear peptides [2] | Binding of Control serum LUMC to linear peptides [2] | Binding of Control serum LUMC to looped peptides [2] | Binding of serum 1a to looped/cyclic peptides of protein X2 of SARS-CoV Urbani [3] | Binding of serum 1b to looped/cyclic peptides of protein X2 of SARS-CoV Urbani [3] | Binding of serum 2 to looped/cyclic peptides of protein X2 of SARS-CoV Urbani [3] | Binding of serum 6 to looped/cyclic peptides of protein X2 of SARS-CoV Urbani [3] | Binding of serum 37 to looped/cyclic peptides of protein X2 of SARS-CoV Urbani [3] | Binding of serum 62 to looped/cyclic peptides of protein X2 of SARS-CoV Urbani [3] | Binding of serum London to looped/cyclic peptides of protein X2 of SARS-CoV Urbani [3] | Binding of serum SARS-green to looped/cyclic peptides of protein X2 of SARS-CoV Urbani [3] | Binding of serum SARS-yellow to looped/cyclic peptides of protein X2 of SARS-CoV Urbani [3] | Binding of serum 1a to linear peptides of protein X1 of SARS-CoV Urbani [3] | Binding of serum 1a to looped/cyclic peptide (PEPSCAN-ELISA) [3] | Binding of serum 1b to linear peptides of protein X1 of SARS-CoV Urbani [3] | Binding of serum 1b to looped/cyclic peptide (PEPSCAN-ELISA) [3] | Binding of serum 2 to linear peptides of protein X1 of SARS-CoV Urbani [3] | other results
1 | MAISPKFTTSLSLHK | 0.3 | 0.6 | 0.7 | 1.0 | 0.7 | 0.6 | 0.5 | 0.5 | 0.4 | 0.4 | 0.4 | 0.6 | 0.2 | 0.4 | 0.5 | – | – | – | – | – | Binding of serum 1a to linear peptides of protein X2 [3]: 0.7; Binding of serum 1b to linear peptides of protein X2 [3]: 0.7; Binding of serum 2 to linear peptides of protein X2 [3]: 0.7; Binding of serum 6 to linear peptides of protein X2 [3]: 0.6; Binding of serum 37 to linear peptides of protein X2 [3]: 0.7; Binding of serum 62 to linear peptides of protein X2 [3]: 0.7; Binding of serum London to linear peptides of protein X2 [3]: 0.5; Binding of serum SARS-green to linear peptides of protein X2 [3]: 0.5; Binding of serum SARS-yellow to linear peptides of protein X2 [3]: 0.5
2 | MEAQFLYLYALIYFL | 0.1 | 0.5 | 0.4 | 0.2 | 0.5 | 0.5 | – | – | – | – | – | – | – | – | – | 0.7 | 0.5 | 0.6 | 0.3 | 0.5 | Binding of serum 2 to looped/cyclic peptide (PEPSCAN-ELISA) [3]: 0.4; Binding of serum 6 to linear peptides of protein X1 of SARS-CoV Urbani [3]: 0.4; Binding of serum 6 to looped/cyclic peptide (PEPSCAN-ELISA) [3]: 0.2; Binding of serum 37 to linear peptides of protein X1 of SARS-CoV Urbani [3]: 0.5; Binding of serum 37 to looped/cyclic peptide (PEPSCAN-ELISA) [3]: 0.8; Binding of serum 62 to linear peptides of protein X1 of SARS-CoV Urbani [3]: 0.4; Binding of serum 62 to looped/cyclic peptide (PEPSCAN-ELISA) [3]: 0.5; Binding of serum London to linear peptides of protein X1 of SARS-CoV Urbani [3]: 0.2; Binding of serum London to looped/cyclic peptide (PEPSCAN-ELISA) [3]: 0.2; Binding of serum SARS-green to linear peptides of protein X1 of SARS-CoV Urbani [3]: 0.0; Binding of serum SARS-green to looped/cyclic peptide (PEPSCAN-ELISA) [3]: 0.2; Binding of serum SARS-yellow to linear peptides of protein X1 of SARS-CoV Urbani [3]: 0.2; Binding of serum SARS-yellow to looped/cyclic peptide (PEPSCAN-ELISA) [3]: 0.4
3 | MRFFTLGSITAQPVK | 0.4 | 0.2 | 0.2 | 0.4 | 0.7 | 0.4 | – | – | – | – | – | – | – | – | – | 0.6 | 0.3 | 0.4 | 0.1 | 0.4 | Binding of serum 2 to looped/cyclic peptide (PEPSCAN-ELISA) [3]: 0.1; Binding of serum 6 to linear peptides of protein X1 of SARS-CoV Urbani [3]: 0.6; Binding of serum 6 to looped/cyclic peptide (PEPSCAN-ELISA) [3]: 0.2; Binding of serum 37 to linear peptides of protein X1 of SARS-CoV Urbani [3]: 0.6; Binding of serum 37 to looped/cyclic peptide (PEPSCAN-ELISA) [3]: 0.2; Binding of serum 62 to linear peptides of protein X1 of SARS-CoV Urbani [3]: 0.4; Binding of serum 62 to looped/cyclic peptide (PEPSCAN-ELISA) [3]: 0.3; Binding of serum London to linear peptides of protein X1 of SARS-CoV Urbani [3]: 0.5; Binding of serum London to looped/cyclic peptide (PEPSCAN-ELISA) [3]: 0.2; Binding of serum SARS-green to linear peptides of protein X1 of SARS-CoV Urbani [3]: 0.2; Binding of serum SARS-green to looped/cyclic peptide (PEPSCAN-ELISA) [3]: 0.1; Binding of serum SARS-yellow to linear peptides of protein X1 of SARS-CoV Urbani [3]: 0.4; Binding of serum SARS-yellow to looped/cyclic peptide (PEPSCAN-ELISA) [3]: 0.1
4 | MSRRRLLACLCKHKK | 0.2 | 0.3 | 0.3 | 0.7 | 0.5 | 0.2 | 0.2 | 0.1 | 0.0 | 0.1 | 0.2 | 0.3 | 0.1 | 0.1 | 0.1 | – | – | – | – | – | Recognition of the peptide by sera of SARS-CoV infected individuals, and form (linear, looped/cyclic) in which it is recognized [3]: recognized in linear form
5 | MWLSYFVASFRLFAR | – | – | – | – | – | – | – | – | – | – | – | – | – | – | – | – | – | – | – | – | Rabbit serum linear peptides [1]: 0.4; Rabbit serum looped peptides [1]: 0.5; Binding of Control Serum Blood-Bank to Looped peptides of the protein M of SARS-CoV Urbani [2]: 0.7; Binding of Control serum Blood-bank to linear peptides of the protein M of SARS-CoV Urbani [2]: 0.5; Binding of Control serum LUMC to linear peptides of the protein M of SARS-CoV Urbani [2]: 0.2; Binding of Control serum LUMC to looped peptides of the protein M of SARS-CoV Urbani [2]: 0.7; Binding of serum 1a to linear peptides of protein M of SARS-CoV Urbani [3]: 0.6; Binding of serum 1b to linear peptides of protein M of SARS-CoV Urbani [3]: 0.3; Binding of serum 2 to linear peptides of protein M of SARS-CoV Urbani [3]: 0.5; Binding of serum 6 to linear peptides of protein M of SARS-CoV Urbani [3]: 0.3; Binding of serum 37 to linear peptides of protein M of SARS-CoV Urbani [3]: 0.6; Binding of serum 62 to linear peptides of protein M of SARS-CoV Urbani [3]: 0.7; Binding of serum London to linear peptides of protein M of SARS-CoV Urbani [3]: 0.3; Binding of serum SARS-green to linear peptides of protein M of SARS-CoV Urbani [3]: 0.2; Binding of serum SARS-yellow to linear peptides of protein M of SARS-CoV Urbani [3]: 0.1; Recognition of the peptide by sera of SARS-CoV infected individuals, and form (linear, looped/cyclic) in which it is recognized [3]: recognized in looped/cyclic form
